Paper PMC7688903 (Frontiers in Microbiology, 2020)
Where a SMILES comes first, the peptide text is derived from it. [ ]: non-standard residue; d: D form. 2Thi = N[C@@H](Cc1cccs1)C(=O)O; Aib = CC(C)(N)C(=O)O

Assays:
[1] = Circular dichroism spectroscopy, secondary structure; format: physicochemical; conditions: 0.1 mg/mL, 25°C; for [θ]222: average of three scans; for %α-helix: from [θ]222
Procedure: The secondary structures of Pep05 and its derivatives were investigated using a Chirascan qCD Spectrometer (Applied Photophysics, United Kingdom). The peptides were dissolved to a final concentration of 0.1 mg/mL in four different solvents, namely, 10 mM phosphate buffer (PB; pH 7.4), 50% TFE/PB, 25 mM SDS in PB, and 0.1% LPS in PB ([Kim et al., 2017]). Circular dichroism (CD) spectra were recorded from 260 to 190 nm at 25°C as the average of three scans. Data were collected using a path length of 0.1 cm, scan speed of 50 nm/min, bandwidth of 1.0 nm, response time of 1 s, and resolution of 0.1 nm ([Khara et al., 2016]). Following background subtraction, the observed ellipticity [θ]obs (mdeg) was converted to molar ellipticity [θ] (deg⋅cm^2⋅dmol^–1) using the equation [θ] = [θ]obs(MRW/10cl), where [θ]obs is the observed ellipticity corrected for the blank at a given wavelength (mdeg), MRW is the mean residue molecular weight (molecular weight/number of amino acids), c is the peptide concentration (mg/mL), and l is the path length (cm). Assuming a two-state model, the percentage of α-helix structure was calculated using the following equation: α-helical content = −([θ]222 + 2000)/30000 × 100% ([Jia et al., 2017]).
The influence of the amino acid substitutions on the peptide secondary structure was investigated using CD spectroscopy under different conditions, including 10 mM PB at pH 7.4 (mimicking an aqueous environment), 50% TFE (mimicking a hydrophobic bacterial membrane environment), 25 mM SDS (mimicking a negatively charged bacterial membrane environment), and 0.1% LPS (mimicking a bacterial outer membrane environment).

[2] = system: proteases secreted by S. aureus ATCC 25923; experiment: in vitro
Outline: (§1)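 Cell-free culture supernatants (overnight, 37°C; MH broth for bacteria, 2% tryptone/2% dextrose for yeast) were centrifuged, adjusted to pH 8.0 and 0.22 μm filtered. Peptides at 0.5 mg/mL were incubated in supernatant 24 h at 37°C; remaining intact peptide measured by RP-HPLC, with peptide-free supernatant as negative control.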

human plasma proteases [3] = experiment: in vitro
Procedure: (§2) The peptides were mixed with plasma from healthy volunteers to a final concentration of 0.1 mg/mL and incubated at 37°C. Aliquots (20 or 40 μL) were removed after 0, 2, 4, 6, 8, 12, 24, and 36 h, mixed with 0.05% TFA to a final concentration of 0.01 mg/mL, and incubated on ice for 10 min. After centrifugation (12,000 × g, 5 min), the supernatant was stored at −20°C. The samples were analyzed as described in section “Hydrophobicity” and quantified as described in section “Stability Toward Tryptic Degradation.” All stability tests were performed at least in triplicate. The identities of the metabolites after 12 h of degradation by plasma proteases were determined by LC-MS on a Waters Acquity UPLC-QDa system.

P. aeruginosa ATCC 9027 = experiment: In vivo antibacterial activity, lethal intraperitoneal infection; conditions: BALB/c mice, lethal i.p. dose of P. aeruginosa ATCC 9027, 10 mg/kg i.p. at 1 and 8 h post-infection, n = 10
Procedure: The in vivo antibacterial activities of the peptides were evaluated in BALB/c mice using P. aeruginosa ATCC 9027 as a test strain. A total of 20 mice (6 weeks old, approximate weight: 18–20 g, SFP grade) were first used to measure the minimal lethal doses (MLD) with 5 mice for each inoculum. Cell numbers of selected strains were determined from the colony numbers from the plate count agar and four inocula (1 × 10^6, 5 × 10^6, 1 × 10^7, and 5 × 10^7 CFU/mouse) were administered via intraperitoneal injection. The minimal lethal dose was determined by measuring the mortality rate after 72 h. BALB/c mice were then injected intraperitoneally with a lethal dose of P. aeruginosa ATCC 9027. […] Colistin (10 mg/kg) was used as a positive control. The survival of the animals was monitored over 7 d.

[4] = Hydrophobicity by RP-HPLC retention time; format: physicochemical
Procedure: Each peptide was dissolved in ddH2O to a concentration of 0.5 mg/mL and then subjected to RP-HPLC on an analytical Waters XBridge C18 column (length: 250 mm, internal diameter: 4.6 mm) using 0.1% TFA in water as solvent A and 0.1% TFA in acetonitrile as solvent B. The peptides were eluted using a linear gradient as follows: 5%B to 45%B over 20 min, 45%B to 60%B over 2 min, and 60%B to 5%B over 1 min. The flow rate was 1 mL/min and the absorbance was measured at 215 nm. The retention time was recorded for each peptide ([Kim et al., 2005]).
Peptide hydrophobicity, net charge, amphipathic nature, and secondary structure are believed to be important for antimicrobial activity ([Lee et al., 2016]; [Li J. et al., 2017]). Among these, hydrophobicity has been recognized as an important factor to promote hydrophobic interaction with the hydrophobic core of the lipid bilayer, leading to membrane disruption, cytoplasm leakage, and eventual cell death ([Schmidtchen et al., 2014]). However, the actual hydrophobicity in liquid environment has been reported to usually show disagreement with the theoretical mean hydrophobicity ([Kim et al., 2005]). […] More hydrophobic compounds are typically eluted later from the column. […]

[5] = system: proteases secreted by P. aeruginosa ATCC 27853; experiment: in vitro; conditions: Pseudomonas aeruginosa, P. aeruginosa ATCC 27853 culture supernatant, pH 8
Outline: as §1

human plasma proteases [6] = system: human plasma proteases
Procedure: as §2

[7] = system: all of the bacterial and fungal supernatants tested; conditions: pH 8.0, peptide 0.5 mg/mL, 37°C, 24 h, RP-HPLC
Procedure: The stabilities of the peptides toward proteases secreted by E. coli ATCC 25922, P. aeruginosa ATCC 27853, A. baumannii ATCC 19606, S. aureus ATCC 25923, and C. albicans ATCC 10231 were also examined. Microbial supernatants were prepared by resuspending single colonies of each strain in 20 mL of an appropriate culture medium followed by incubation at 37°C overnight. MH broth and 2% tryptone/2% dextrose were used as the culture media for bacteria and yeast, respectively. Each culture was then centrifuged at 12,000 × g for 10 min and the supernatant was adjusted to pH 8.0 with HCl or NaOH and then filtered through a 0.22 μm sterile filter membrane ([Zaet et al., 2017]). The peptides were then dissolved in the filtered supernatants to a concentration of 0.5 mg/mL, and the peptide-free supernatants were used as negative controls. The samples were incubated at 37°C for 24 h in a water bath and then analyzed by RP-HPLC as described above.

| Compound | [θ]222 ([1]; 10 mM PB buffer pH 7.4) | %α-helix ([1]; 10 mM PB buffer pH 7.4, rc = random coil) | [θ]222 ([1]; 25 mM SDS in PB) | %α-helix ([1]; 25 mM SDS in PB, rc = random coil) | [θ]222 ([1]; 0.1% LPS in PB) | %α-helix ([1]; 0.1% LPS in PB) | [θ]222 ([1]; 50% TFE/PB) | %α-helix ([1]; 50% TFE/PB, rc = random coil) | Percent of remained peptide amount after incubation (%) ([2]; S. aureus ATCC 25923 culture supernatant (MH broth), pH 8.0, 0.22 μm filtered, peptide 0.5 mg/mL, 37°C, 24 h, RP-HPLC) | remaining at 12 h, 0.1 mg/mL (human plasma proteases [3]) | remaining at 24 h, 0.1 mg/mL (human plasma proteases [3]) | survival rate (P. aeruginosa ATCC 9027; after 3 d) | survival rate (P. aeruginosa ATCC 9027; after 7 d) | relative retention time (RRT) with respect to Pep05 ([4]; RP-HPLC retention time of peptide / that of Pep05, C18, acetonitrile/water/TFA) | RT (RP-HPLC retention time, measure of hydrophobicity) ([4]; chromatographic, Waters XBridge C18 250 x 4.6 mm, 0.5 mg/mL in ddH2O, A 0.1% TFA/water, B 0.1% TFA/acetonitrile, 5-45%B over 20 min, 1 mL/min, UV 215 nm) | remaining at 24 h, 0.5 mg/mL [5] | remaining at 24 h, 0.5 mg/mL ([2]; Staphylococcus aureus, S. aureus ATCC 25923 culture supernatant, pH 8) | degradation products by plasma proteases (LC-MS) (human plasma proteases [6]) | remaining at 8 h, 0.1 mg/mL (human plasma proteases [3]) | original peptide remaining in microbial supernatants [7] |
| --- | --- | --- | --- | --- | --- | --- | --- | --- | --- | --- | --- | --- | --- | --- | --- | --- | --- | --- | --- | --- |
| CC(C)C[C@H](NC(=O)[C@H](Cc1ccc(O)cc1)NC(=O)[C@H](CCCCN)NC(=O)[C@H](CC(C)C)NC(=O)[C@H](CC(C)C)NC(=O)[C@H](CCCCN)NC(=O)[C@H](CCCCN)NC(=O)[C@H](Cc1ccccc1)NC(=O)[C@H](CC(C)C)NC(=O)[C@H](CCCNC(=N)N)NC(=O)C(C)(C)N)C(=O)N[C@@H](CCCNC(=N)N)C(=O)N[C@@H](CCCCN)C(=O)N[C@@H](Cc1cccs1)C(N)=O [UP09] (H-[Aib]RLFKKLLKYLRK[2Thi]-NH2; N-terminus assumed) | –1842.7 deg⋅cm^2⋅dmol^–1 | rc | –4643.3 deg⋅cm^2⋅dmol^–1 | 8.8% | –11064.1 deg⋅cm^2⋅dmol^–1 | 30.2% | –11436.9 deg⋅cm^2⋅dmol^–1 | 31.5% | 36.92 ± 3.97 % | > 50% | > 30% | 40% | 10% | 1.08 | 16.606 min | – | – | – | – | – |
| CC(C)C[C@H](NC(=O)[C@H](CC(C)C)NC(=O)[C@@H](CCCCN)NC(=O)[C@@H](CCCCN)NC(=O)[C@H](Cc1ccccc1)NC(=O)[C@H](CC(C)C)NC(=O)[C@@H](CCCNC(=N)N)NC(=O)[C@H](N)CCCCN)C(=O)N[C@H](CCCCN)C(=O)N[C@@H](Cc1ccc(O)cc1)C(=O)N[C@@H](CC(C)C)C(=O)N[C@H](CCCNC(=N)N)C(=O)N[C@H](CCCCN)C(=O)N[C@@H](Cc1ccccc1)C(N)=O [DP06] (H-[dK][dR]LF[dK][dK]LL[dK]YL[dR][dK]F-NH2) | – | – | – | – | – | – | – | – | – | – | > 60% | – | – | – | – | 61.2 ± 6.06% | 86.4 ± 4.81% | No obvious degradation products | > 90% | more than 60% |
